Experimental data: PubChem BioAssay (NCI)
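Cells were grown in 96-well plates and exposed to each compound for 48 hours at five concentrations; endpoints were interpolated linearly between bracketing concentrations, or set to the highest concentration if not reached. GI50 marks 50% less growth. TGI denotes the concentration required for complete inhibition of growth.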

Assays:
Assay in all cases: NCI tumour cell line growth inhibition, 48 h
A549 NSCLC = tested on: A549 NSCLC
ACHN renal = tested on: ACHN renal
CAKI-1 renal = tested on: CAKI-1 renal
COLO 205 colon = tested on: COLO 205 colon
EKVX NSCLC = tested on: EKVX NSCLC
HCC-2998 colon = tested on: HCC-2998 colon
HCT-116 colon = tested on: HCT-116 colon
HCT-15 colon = tested on: HCT-15 colon
HL-60(TB) leukemia = tested on: HL-60(TB) leukemia
HOP-62 NSCLC = tested on: HOP-62 NSCLC
HOP-92 NSCLC = tested on: HOP-92 NSCLC
HT29 colon = tested on: HT29 colon
IGROV1 ovarian = tested on: IGROV1 ovarian
KM12 colon = tested on: KM12 colon
KM20L2 colon = tested on: KM20L2 colon
LOX IMVI melanoma = tested on: LOX IMVI melanoma
M14 melanoma = tested on: M14 melanoma
MALME-3M melanoma = tested on: MALME-3M melanoma
MOLT-4 leukemia = tested on: MOLT-4 leukemia
NCI-H226 lung = tested on: NCI-H226 lung
NCI-H23 lung = tested on: NCI-H23 lung
NCI-H460 lung = tested on: NCI-H460 lung
NCI-H522 lung = tested on: NCI-H522 lung
OVCAR-3 ovarian = tested on: OVCAR-3 ovarian
OVCAR-4 ovarian = tested on: OVCAR-4 ovarian
OVCAR-5 ovarian = tested on: OVCAR-5 ovarian
OVCAR-8 ovarian = tested on: OVCAR-8 ovarian
RXF 393 renal = tested on: RXF 393 renal
SF-268 CNS = tested on: SF-268 CNS
SF-295 CNS = tested on: SF-295 CNS
SF-539 CNS = tested on: SF-539 CNS
SK-MEL-2 melanoma = tested on: SK-MEL-2 melanoma
SK-MEL-28 melanoma = tested on: SK-MEL-28 melanoma
SK-MEL-5 melanoma = tested on: SK-MEL-5 melanoma
SK-OV-3 ovarian = tested on: SK-OV-3 ovarian
SNB-75 CNS = tested on: SNB-75 CNS
SR leukemia = tested on: SR leukemia
SW-620 colon = tested on: SW-620 colon
TK-10 renal = tested on: TK-10 renal
U251 CNS = tested on: U251 CNS
UACC-257 melanoma = tested on: UACC-257 melanoma
UACC-62 melanoma = tested on: UACC-62 melanoma
UO-31 renal = tested on: UO-31 renal
786-0 renal = tested on: 786-0 renal
A498 renal = tested on: A498 renal
BT-549 breast = tested on: BT-549 breast
CCRF-CEM leukemia = tested on: CCRF-CEM leukemia
DU-145 prostate = tested on: DU-145 prostate
HS 578T breast = tested on: HS 578T breast
K-562 leukemia = tested on: K-562 leukemia
MCF7 breast = tested on: MCF7 breast
MDA-MB-231 breast = tested on: MDA-MB-231 breast
MDA-MB-435 = tested on: MDA-MB-435
MDA-N = tested on: MDA-N
NCI/ADR-RES ovarian = tested on: NCI/ADR-RES ovarian
PC-3 prostate = tested on: PC-3 prostate
RPMI-8226 leukemia = tested on: RPMI-8226 leukemia
SN12C renal = tested on: SN12C renal
SNB-19 CNS = tested on: SNB-19 CNS
T-47D breast = tested on: T-47D breast

Compound: O=C(N/N=C/c1cc(Cl)cc(Cl)c1[O-])c1ccccc1O.O=C(N/N=C/c1cc(Cl)cc(Cl)c1[O-])c1ccccc1O.[Co+2]
- GI50 (A549 NSCLC): 0.532 µM
- TGI (A549 NSCLC): 13.2 µM
- TGI (ACHN renal): 10.7 µM
- TGI (CAKI-1 renal): 6.3 µM
- GI50 (COLO 205 colon): 3.8 µM
- TGI (COLO 205 colon): 18.3 µM
- GI50 (EKVX NSCLC): 1.02 µM
- TGI (EKVX NSCLC): 14.8 µM
- TGI (HCC-2998 colon): 6.63 µM
- GI50 (HCT-116 colon): 0.552 µM
- TGI (HCT-116 colon): 14 µM
- TGI (HCT-15 colon): 13.8 µM
- TGI (HL-60(TB) leukemia): 0.634 µM
- TGI (HOP-62 NSCLC): 5.07 µM
- GI50 (HOP-92 NSCLC): 0.471 µM
- TGI (HOP-92 NSCLC): 3.18 µM
- TGI (HT29 colon): 17.4 µM
- TGI (IGROV1 ovarian): 6.97 µM
- GI50 (KM12 colon): 0.963 µM
- TGI (KM12 colon): 19.1 µM
- GI50 (KM20L2 colon): 2.14 µM
- TGI (KM20L2 colon): 7.43 µM
- TGI (LOX IMVI melanoma): 11.8 µM
- TGI (M14 melanoma): 2.95 µM
- GI50 (MALME-3M melanoma): 2.19 µM
- TGI (MALME-3M melanoma): 16 µM
- GI50 (MOLT-4 leukemia): 0.23 µM
- TGI (MOLT-4 leukemia): 15.7 µM
- TGI (NCI-H226 lung): 4.1 µM
- GI50 (NCI-H23 lung): 0.814 µM
- TGI (NCI-H23 lung): 5.47 µM
- TGI (NCI-H460 lung): 11.1 µM
- TGI (NCI-H522 lung): 1.63 µM
- TGI (OVCAR-3 ovarian): 0.969 µM
- TGI (OVCAR-4 ovarian): 7.07 µM
- TGI (OVCAR-5 ovarian): 6.27 µM
- TGI (OVCAR-8 ovarian): 11.6 µM
- TGI (RXF 393 renal): 8.46 µM
- TGI (SF-268 CNS): 21.2 µM
- TGI (SF-295 CNS): 12.9 µM
- GI50 (SF-539 CNS): 0.486 µM
- TGI (SF-539 CNS): 5.68 µM
- GI50 (SK-MEL-2 melanoma): 0.37 µM
- TGI (SK-MEL-2 melanoma): 3.74 µM
- TGI (SK-MEL-28 melanoma): 12.1 µM
- TGI (SK-MEL-5 melanoma): 2.53 µM
- TGI (SK-OV-3 ovarian): 6.45 µM
- TGI (SNB-75 CNS): 18.9 µM
- TGI (SR leukemia): 0.532 µM
- TGI (SW-620 colon): 16.8 µM
- TGI (TK-10 renal): 12 µM
- TGI (U251 CNS): 3.73 µM
- TGI (UACC-257 melanoma): 14.6 µM
- TGI (UACC-62 melanoma): 3.43 µM
- TGI (UO-31 renal): 6.72 µM

Compound: [O-][N+](=Nc1ccccc1CO)c1ccccc1CO
- TGI (786-0 renal): > 100 µM
- TGI (A498 renal): > 100 µM
- TGI (A549 NSCLC): > 100 µM
- TGI (BT-549 breast): > 100 µM
- TGI (CAKI-1 renal): > 100 µM
- TGI (CCRF-CEM leukemia): > 100 µM
- TGI (COLO 205 colon): > 100 µM
- TGI (DU-145 prostate): > 100 µM
- TGI (EKVX NSCLC): > 100 µM
- TGI (HCC-2998 colon): > 100 µM
- TGI (HCT-116 colon): > 100 µM
- TGI (HCT-15 colon): > 100 µM
- TGI (HL-60(TB) leukemia): > 100 µM
- TGI (HS 578T breast): > 100 µM
- TGI (HT29 colon): > 100 µM
- TGI (K-562 leukemia): > 100 µM
- TGI (KM12 colon): > 100 µM
- TGI (LOX IMVI melanoma): > 100 µM
- TGI (M14 melanoma): > 100 µM
- TGI (MALME-3M melanoma): > 100 µM
- TGI (MCF7 breast): > 100 µM
- TGI (MDA-MB-231 breast): > 100 µM
- TGI (MDA-MB-435): > 100 µM
- TGI (MDA-N): > 100 µM
- TGI (MOLT-4 leukemia): > 100 µM
- TGI (NCI-H226 lung): > 100 µM
- TGI (NCI-H23 lung): > 100 µM
- TGI (NCI-H460 lung): > 100 µM
- TGI (NCI-H522 lung): > 100 µM
- TGI (NCI/ADR-RES ovarian): > 100 µM
- TGI (OVCAR-3 ovarian): > 100 µM
- TGI (OVCAR-4 ovarian): > 100 µM
- TGI (OVCAR-5 ovarian): > 100 µM
- TGI (OVCAR-8 ovarian): > 100 µM
- TGI (PC-3 prostate): > 100 µM
- TGI (RPMI-8226 leukemia): > 100 µM
- TGI (RXF 393 renal): > 100 µM
- TGI (SF-268 CNS): > 100 µM
- TGI (SF-539 CNS): > 100 µM
- TGI (SK-MEL-2 melanoma): > 100 µM
- TGI (SK-MEL-28 melanoma): > 100 µM
- TGI (SK-MEL-5 melanoma): > 100 µM
- TGI (SK-OV-3 ovarian): > 100 µM
- TGI (SN12C renal): > 100 µM
- TGI (SNB-19 CNS): > 100 µM
- TGI (SNB-75 CNS): > 100 µM
- TGI (SR leukemia): > 100 µM
- TGI (SW-620 colon): > 100 µM
- TGI (T-47D breast): > 100 µM
- TGI (TK-10 renal): > 100 µM
- TGI (U251 CNS): > 100 µM
- TGI (UACC-257 melanoma): > 100 µM
- TGI (UACC-62 melanoma): > 100 µM
- TGI (UO-31 renal): > 100 µM
